{"source": "patent US12540161B2", "about": "“Linkers” (BicycleTx Limited, priority 2020, dated 2026)", "key": {"[1]": {"assay": "Plasma stability analysis, mouse plasma", "conditions": "plasma, BTCs"}, "HT1080 xenograft": {"tested_on": "HT1080 xenograft", "assay": "In vivo efficacy study in the HT1080 xenograft model in BALB/c nude mice (Example 6)", "conditions": "for Tumor volume, day 0 / Tumor volume, day 2 / Tumor volume, day 4 / Tumor volume, day 6 / Tumor volume, day 9 / T/C (%) / TGI (%) / Tumor volume, day 11: iv, qw; for Tumor volume, day 0: day 0 after the start of treatment; for Tumor volume, day 0 / Tumor volume, day 2 / Tumor volume, day 4 / Tumor volume, day 6 / Tumor volume, day 9 / Tumor volume, day 11: mean ± SEM; for T/C (%) / TGI (%) / Tumor volume, day 11: day 11", "description": "• Species: Mus Musculus • Strain: BALB/c nude • Age: 6-8 weeks • Sex: female • Body weight: 18-22 g • Number of animals: 35 mice plus spare • Animal supplier: Shanghai Lingchang Biotechnology Experimental Animal Co., LTD. Housing Condition • The mice were kept in individual ventilation cages at constant temperature and humidity with 5 animals in each cage. • Temperature: 20˜26° C. • Humidity 40-70%. • Cages: Made of polycarbonate. The size is 375 mm×215 mm×180 mm.\nThe HT1080 cells were maintained in EMEM medium supplemented with 10% heat inactivated fetal bovine serum at 37° C. in an atmosphere of 5% CO2 in air. The tumor cells were routinely sub-cultured twice weekly. The cells growing in an exponential growth phase were harvested and counted for tumor inoculation.\nEach mouse was inoculated subcutaneously at the right flank with HT1080 tumor cells (5×10^6) in 0.2 ml of PBS for tumor development. Animals were randomized when the average tumor volume reached 320 mm^3 for efficacy study. The test article administration and the animal numbers in each group were shown in the experimental design table.\nAll the procedures related to animal handling, care and the treatment in the study were performed according to the guidelines approved by the Institutional Animal Care and Use Committee (IACUC) of WuXi AppTec, following the guidance of the Association for Assessment and Accreditation of Laboratory Animal Care (AAALAC). At the time of routine monitoring, the animals were checked for any effects of tumor growth and treatments on normal behavior such as mobility, food and water consumption (by observation only), body weight gain/loss, eye/hair matting and any other abnormal effect as stated in the protocol. Death and observed clinical signs were recorded on the basis of the numbers of animals within each subset.\nThe major endpoint was to see if the tumor growth could be delayed or mice could be cured. Tumor volume was measured three times weekly in two dimensions using a caliper, and the volume was expressed in mm^3 using the formula: V=0.5 a×b^2 where a and b are the long and short diameters of the tumor, respectively. The tumor size was then used for calculations of T/C value. The T/C value (in percent) is an indication of antitumor effectiveness; T and C are the mean volumes of the treated and control groups, respectively, on a given day.\nTGI was calculated for each group using the formula: TGI (%)=[1−(Ti−T0)/(Vi−Vo)]×100; Ti is the average tumor volume of a treatment group on a given day, T0 is the average tumor volume of the treatment group on the day of treatment start, Vi is the average tumor volume of the vehicle control group on the same day with Ti, and V0 is the average tumor volume of the vehicle group on the day of treatment start.\nSummary statistics, including mean and the standard error of the mean (SEM), were provided for the tumor volume of each group at each time point.\nStatistical analysis of difference in tumor volume among the groups was conducted on the data obtained at the best therapeutic time point after the final dose.\nA one-way ANOVA was performed to compare tumor volume among groups, and when a significant F-statistics (a ratio of treatment variance to the error variance) was obtained, comparisons between groups were carried out with Games-Howell test. A two-tailed T test was performed to compare tumor volume between two groups. All data were analyzed using GraphPad 5.0. P<0.05 was considered to be statistically significant."}, "[2]": {"conditions": "rat"}, "HT1080 cells": {"tested_on": "HT1080 cells", "conditions": "1 mg/kg and 3 mg/kg", "procedure": "For Cell-Derived Xenograft (CDX) models, mice (balb/c nude, female, 18-23 g at study start) were inoculated with HT1080 cells (5.0×10^6 cells/mouse in 0.2 ml PBS to the right flank). Animals were randomized when the average tumour volume reached the pre-designated start size. Group size is n=4. All studies included a vehicle-treated control.\nDosing was conducted by intravenous bolus. Tumor volume was measured in two dimensions using a caliper, and the volume was expressed in mm^3 using the formula: V=0.5 a×b^2 where a and b are the long and short diameters of the tumor, respectively."}, "in vivo": {"assay": "in vivo", "conditions": "rat, plasma"}, "in vitro [3]": {"assay": "in vitro", "conditions": "rat, plasma, pH 7.4", "procedure": "Pooled frozen plasma was thawed in a water bath at 37° C. Plasma was centrifuged at 4000 rpm for 5 min and the clots were removed if any. The pH will be adjusted to 7.4±0.1 if required. 1 mM stock solution was prepared with DMSO. Propantheline (positive control) was prepared by making a 100 μM working solution by diluting 5 μL of the stock solution (10 mM) with 495 μL ultra pure water. 100 μM working solutions of test compounds were made up by diluting 10 μL of the stock solution (1 mM) with 90 μL DMSO. 98 μL of blank plasma was spiked with 2 μL of dosing solution (100 μM) to achieve 2 μM of the final concentration in duplicate and samples were incubated at 37° C. in a water bath. At each time point (0, 1, 2, 4, 6 and 24 hr), 400 μL of 200 ng/mL tolbutamide and labetalol in 100% MeOH was added and mixed thoroughly to precipitate proteins. Sample plates were centrifuged at 4,000 rpm for 15 min. An aliquot of supernatant (150 μL) was transferred from each well before submitting for LC-MS/MS analysis.\nThe % remaining test compound after incubation in plasma was calculated using following equation: Remaining=100×(PAR at appointed incubation time/PAR at T0 time)\nwhere PAR is the peak area ratio of analyte versus internal standard (IS).\nThe appointed incubation time points are T0 (0 hr), Tn (n=0, 1, 2, 4, 6, 24 hr). The half-life (T½) was calculated from a log linear plot of concentration versus time.\nWhen the % remaining value at the maximal incubation time, which was 24 hr in this study, was higher than 75%, it is considered to be within the acceptable experimental variation."}, "in vitro [4]": {"assay": "in vitro", "conditions": "mouse, plasma"}, "in vitro [5]": {"assay": "in vitro", "conditions": "rat, plasma"}, "in vitro [6]": {"assay": "in vitro", "conditions": "cynomolgus monkey, plasma"}, "in vitro [7]": {"assay": "in vitro", "conditions": "human, plasma"}, "[8]": {"conditions": "7 animals of group 5 and 6 treated with BCY10984 45 μM, average starting tumor size 1291 mm^3"}}, "note": "Where “and” joins values, the source holds several entries; their conditions need not be identical. Equal entries are not always repeated.", "data": [{"smiles": "CC[C@H](C)[C@@H]([C@@H](CC(=O)N1CCC[C@H]1[C@H](OC)[C@@H](C)C(=O)N[C@H](C)[C@@H](O)c1ccccc1)OC)N(C)C(=O)[C@@H](NC(=O)[C@H](C(C)C)N(C)C(=O)OCc1ccc(NC(=O)[C@H](CCCNC(N)=O)NC(=O)[C@H](Cc2cccc3ccccc23)NC(=O)[C@H](CCC(=O)O)NC(=O)Cn2cc(CCC(=O)NCCC(=O)N(C)CC(=O)N(C)CC(=O)N(C)CC(=O)N(C)CC(=O)N(C)CC(=O)N(C)CC(=O)N(C)CC(=O)N(C)CC(=O)N(C)CC(=O)N(C)CC(=O)N[C@@H](C)C(=O)N[C@H]3CN(C)Cc4cc5cc(c4)CN(C)C[C@@H](C(N)=O)NC(=O)[C@H](C(C)(C)C)NC(=O)[C@H](CC(=O)O)NC(=O)[C@H](Cc4ccc(O)cc4)NC(=O)[C@H](Cc4ccccc4)NC(=O)[C@H](CC(=O)O)NC(=O)[C@H](CCC(=O)O)NC(=O)[C@H](CSC5)NC(=O)[C@@H](C)NC(=O)[C@H](Cc4cccc5ccccc45)NC(=O)[C@H](CCC(=O)O)NC(=O)[C@H](CC(N)=O)NC(=O)[C@@H](C)NC3=O)nn2)cc1)C(C)C", "note": "[BCY10984, MMAE-PAB-(Cit-1Nal-Glu)-BCY3900]", "values": [{"measurement": "half-life at 2 μM", "setting": "[1]; pH 7.4, Mouse plasma t1/2 (EDTA), EDTA anticoagulant", "value": "> 57.8", "unit": "h"}, {"measurement": "half-life at 2 μM", "setting": "[1]; pH 7.4, Mouse plasma t1/2 (Herparin), heparin anticoagulant", "value": 47.5, "unit": "h"}, {"measurement": "anti-tumor efficacy compared with BCY12951", "setting": "HT1080 xenograft; 5 μM", "value": "comparable anti-tumor efficacy"}, {"measurement": "anti-tumor activity", "setting": "HT1080 xenograft; 5 μM, 15 μM and 45 μM qw", "value": "dose-dependent anti-tumor activity"}, {"measurement": "Tumor volume, day 0", "setting": "HT1080 xenograft; 5 μM", "value": "320 ± 48", "unit": "mm^3"}, {"measurement": "Tumor volume, day 2", "setting": "HT1080 xenograft; 5 μM", "value": "508 ± 49", "unit": "mm^3"}, {"measurement": "Tumor volume, day 4", "setting": "HT1080 xenograft; 5 μM", "value": "681 ± 64", "unit": "mm^3"}, {"measurement": "Tumor volume, day 6", "setting": "HT1080 xenograft; 5 μM", "value": "750 ± 50", "unit": "mm^3"}, {"measurement": "Tumor volume, day 9", "setting": "HT1080 xenograft; 5 μM", "value": "958 ± 53", "unit": "mm^3"}, {"measurement": "T/C (%)", "setting": "HT1080 xenograft; 5 μM", "value": 72.6, "unit": "%"}, {"measurement": "TGI (%)", "setting": "HT1080 xenograft; 5 μM", "value": 33.6, "unit": "%"}, {"measurement": "Tumor volume, day 11", "setting": "HT1080 xenograft; 5 μM", "value": "1257 mm^3 and 1257 ± 95 mm^3"}, {"measurement": "anti-tumor efficacy compared with BCY12951 at the same molar dosage", "setting": "HT1080 xenograft; 15 μM and 45 μM", "value": "more potent efficacy"}, {"measurement": "Tumor volume, day 0", "setting": "HT1080 xenograft; 15 μM", "value": "321 ± 43", "unit": "mm^3"}, {"measurement": "Tumor volume, day 2", "setting": "HT1080 xenograft; 15 μM", "value": "519 ± 76", "unit": "mm^3"}, {"measurement": "Tumor volume, day 4", "setting": "HT1080 xenograft; 15 μM", "value": "428 ± 88", "unit": "mm^3"}, {"measurement": "Tumor volume, day 6", "setting": "HT1080 xenograft; 15 μM", "value": "378 ± 128", "unit": "mm^3"}, {"measurement": "Tumor volume, day 9", "setting": "HT1080 xenograft; 15 μM", "value": "304 ± 112", "unit": "mm^3"}, {"measurement": "T/C (%)", "setting": "HT1080 xenograft; 15 μM", "value": 16.6, "unit": "%"}, {"measurement": "TGI (%)", "setting": "HT1080 xenograft; 15 μM", "value": 102.3, "unit": "%"}, {"measurement": "Tumor volume, day 11", "setting": "HT1080 xenograft; 15 μM", "value": "288 mm^3 and 288 ± 126 mm^3"}, {"measurement": "tumor eradication", "setting": "HT1080 xenograft; 45 μM qw", "value": "eradicated the tumors completely on day 16"}, {"measurement": "Tumor volume, day 0", "setting": "HT1080 xenograft; 45 μM", "value": "320 ± 32", "unit": "mm^3"}, {"measurement": "Tumor volume, day 2", "setting": "HT1080 xenograft; 45 μM", "value": "489 ± 68", "unit": "mm^3"}, {"measurement": "Tumor volume, day 4", "setting": "HT1080 xenograft; 45 μM", "value": "285 ± 90", "unit": "mm^3"}, {"measurement": "Tumor volume, day 6", "setting": "HT1080 xenograft; 45 μM", "value": "139 ± 46", "unit": "mm^3"}, {"measurement": "Tumor volume, day 9", "setting": "HT1080 xenograft; 45 μM", "value": "29 ± 10", "unit": "mm^3"}, {"measurement": "T/C (%)", "setting": "HT1080 xenograft; 45 μM", "value": 0.9, "unit": "%"}, {"measurement": "TGI (%)", "setting": "HT1080 xenograft; 45 μM", "value": 121.6, "unit": "%"}, {"measurement": "Tumor volume, day 11", "setting": "HT1080 xenograft; 45 μM", "value": "15 mm^3 and 15 ± 6 mm^3"}, {"measurement": "tumor response after the first dosing", "setting": "HT1080 xenograft; [8]", "value": "sudden tumor regression"}, {"measurement": "tumor response after the second dosing", "setting": "HT1080 xenograft; [8]", "value": "all tumors were eradicated completely"}, {"measurement": "tumor growth (FIG. 17)", "setting": "HT1080 xenograft; mice from Group 5 and 6 dosed with 45 μM BCY10984", "value": "potent inhibition of tumor growth"}, {"measurement": "AUC ratio", "setting": "[2]", "value": 0.0000936}, {"measurement": "Body weights of the animals", "setting": "HT1080 cells", "value": "not affected"}, {"measurement": "half-life", "setting": "in vivo", "value": 1.83, "unit": "h"}, {"measurement": "half-life at 2 μM", "setting": "in vitro [3]", "value": 53.8, "unit": "h"}, {"measurement": "fraction unbound", "setting": "in vitro [4]", "value": 0.002}, {"measurement": "fraction unbound", "setting": "in vitro [5]; PPB (% Unbound), rat (Table 9)", "value": 0.04}, {"measurement": "fraction unbound", "setting": "in vitro [5]; Plasma protein binding (% Unbound) Rat", "value": 0.035}, {"measurement": "fraction unbound", "setting": "in vitro [6]", "value": 0.092}, {"measurement": "fraction unbound", "setting": "in vitro [7]", "value": 0.031}]}]}
